# Source: paper PMC9226124, “Macrocycle-stabilization of its interaction with 14-3-3 increases plasma membrane localization and activity of CFTR” (Nature Communications, 2022)
# Several values for one entry are separate records, joined by “and”; a condition that tells them apart may be missing. Identical values can stand only once.
# Columns and labels:
# [1] = target: T1, F508del-CFTR in primary CFBE cells (Homo sapiens, UniProt P13569, DEL508-508); assay: Ussing chamber assay (short-circuit current); format: cell-based; design: short-circuit current after stimulation by forskolin and genistein: unit not given here; settings: 18 h
# T1 construct: endogenous in cells; host or cells: primary CFBE cells, air-liquid interface culture
# T1 sequence (P13569 with tags, fused parts or gaps DEL508-508): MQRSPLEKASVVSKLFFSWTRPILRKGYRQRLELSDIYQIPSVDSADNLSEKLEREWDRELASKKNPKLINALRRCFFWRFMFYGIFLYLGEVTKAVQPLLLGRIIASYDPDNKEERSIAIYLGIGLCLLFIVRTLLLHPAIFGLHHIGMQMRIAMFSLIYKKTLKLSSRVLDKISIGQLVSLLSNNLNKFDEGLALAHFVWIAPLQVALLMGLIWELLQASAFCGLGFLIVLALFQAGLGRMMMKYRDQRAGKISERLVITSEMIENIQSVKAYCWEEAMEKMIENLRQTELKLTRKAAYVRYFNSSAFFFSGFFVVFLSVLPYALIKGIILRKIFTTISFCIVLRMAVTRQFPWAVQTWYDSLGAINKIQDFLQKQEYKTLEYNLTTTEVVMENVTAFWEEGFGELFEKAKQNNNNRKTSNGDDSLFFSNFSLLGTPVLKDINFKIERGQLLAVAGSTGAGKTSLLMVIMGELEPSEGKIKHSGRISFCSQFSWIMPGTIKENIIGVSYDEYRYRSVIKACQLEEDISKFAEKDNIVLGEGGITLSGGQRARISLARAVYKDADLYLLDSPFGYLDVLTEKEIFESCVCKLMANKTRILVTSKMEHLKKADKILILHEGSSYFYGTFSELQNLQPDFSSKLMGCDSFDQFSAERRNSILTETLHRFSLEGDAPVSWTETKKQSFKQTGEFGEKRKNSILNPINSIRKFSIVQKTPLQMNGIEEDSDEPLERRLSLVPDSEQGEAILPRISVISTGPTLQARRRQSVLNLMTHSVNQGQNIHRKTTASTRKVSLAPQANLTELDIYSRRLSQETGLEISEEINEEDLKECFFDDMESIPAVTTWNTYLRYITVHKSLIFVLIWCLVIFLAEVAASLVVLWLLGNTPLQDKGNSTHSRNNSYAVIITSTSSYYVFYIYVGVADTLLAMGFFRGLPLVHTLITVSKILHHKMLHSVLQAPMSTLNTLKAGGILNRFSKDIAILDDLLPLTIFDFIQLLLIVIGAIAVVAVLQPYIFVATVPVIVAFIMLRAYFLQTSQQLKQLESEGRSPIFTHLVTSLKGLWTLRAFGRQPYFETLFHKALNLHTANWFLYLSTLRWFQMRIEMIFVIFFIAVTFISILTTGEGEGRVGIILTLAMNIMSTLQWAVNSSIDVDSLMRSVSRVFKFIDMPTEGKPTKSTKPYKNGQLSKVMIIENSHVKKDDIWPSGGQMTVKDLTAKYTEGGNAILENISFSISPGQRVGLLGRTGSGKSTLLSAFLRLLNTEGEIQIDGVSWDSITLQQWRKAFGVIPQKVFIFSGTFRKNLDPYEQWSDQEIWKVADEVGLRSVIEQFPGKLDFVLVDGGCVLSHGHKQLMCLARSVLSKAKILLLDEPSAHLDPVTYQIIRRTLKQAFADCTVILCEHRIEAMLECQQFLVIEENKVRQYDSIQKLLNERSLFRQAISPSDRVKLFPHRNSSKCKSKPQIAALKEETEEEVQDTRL
# Description: Twelve (12) validated hit compounds from the initial screening and focused validation library were tested for their effect on F508del-CFTR trafficking. Baby hamster kidney (BHK) cells expressing 3HA-tagged F508del-CFTR were treated for 24 h with 10 μM compound. After fixation of the cells, a combination of mouse monoclonal anti-HA antibody and anti-mouse IgG conjugated with FITC was used to detect F508del-CFTR that had trafficked to the plasma membrane as described previously. […] Additionally, a fluorescence imaging plate reader (FLIPR) Membrane Potential (FMP) assay was performed. This assay measures real-time membrane potential changes associated with ion channel activation and ion transporter proteins. F508del-CFTR expressing BHK cells were incubated for 24 h with 20 μM compound before treatment with the potentiator genistein, FMP dye, and activator forskolin. The fluorescence intensity is thus a measure for the function of the CFTR protein in the plasma membrane of these cells. The F508del-CFTR corrector VX-809 (lumacaftor) and the triple combination Trikafta® were used as positive controls in this assay. […] Another cellular assay was performed with the Ussing Chamber, which detects and quantifies transport of ions across epithelial tissue. F508del-CFTR expressing cystic fibrosis epithelial (CFBE) cells were treated for 18 h with 20 μM CY007424. After forskolin and genistein stimulation, the short-circuit current of the cells was measured. […]
# [2] = target: T2, 14-3-3β/BAD peptide (Homo sapiens, UniProt P31946); assay: FP assay of 14-3-3 partner protein peptide, BAD; format: binding; settings: for FP signal: BAD peptide, CY007424 100 μM
# T2 construct: His6 (cleaved yes); made in house
# T2 sequence (P31946 1-246): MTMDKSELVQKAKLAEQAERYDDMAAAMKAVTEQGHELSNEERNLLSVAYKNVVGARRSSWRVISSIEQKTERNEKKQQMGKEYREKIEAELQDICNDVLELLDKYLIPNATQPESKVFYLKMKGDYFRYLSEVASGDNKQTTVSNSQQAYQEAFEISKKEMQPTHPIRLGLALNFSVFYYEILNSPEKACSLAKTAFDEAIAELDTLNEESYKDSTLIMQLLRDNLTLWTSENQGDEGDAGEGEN
# Description: The FITC-labeled peptides were dissolved in FP buffer (10 mM HEPES pH 7.4, 150 mM NaCl, 0.1% Tween20, 1 mg/mL BSA) to a final concentration of 100 nM or 10 nM. For the dose-response assays, a 14-3-3β concentration of 10 μM was used while titrating the compounds in a two-times dilution series and, for the other assays, a dilution series of 14-3-3β was made with constant concentration of compound. The dilution series were made in 384 Corning Black Round Bottom well plates and their polarization was measured with a Tecan Infinite F500 plate reader (ex. = 485 nm, em. = 535 nm). The method of fitting of the curves was: “log(agonist) vs. response – Variable slope (four parameters)” from GraphPad Prism. The equation is Y = Bottom + (Top-Bottom)/(1 + 10^((LogEC50-X)*HillSlope)).
# Supplementary Figure 2. Stabilization of the interaction between 14-3-3β and a collection of different 14-3-3 partner protein peptides by CY00742 4. […] Background polarization was subtracted from all values, n=3 technical replicates. Source data are provided as a Source Data file.
# (1 picture or pasted object on this page, not shown here)
# [3] = target: T3, (Homo sapiens, UniProt P13569+P31946); assay: FP assay, 14-3-3β titration at constant compound concentration (apparent KD); format: binding; settings: FC 100 uM
# T3 construct: His6 (cleaved yes); made in house; peptide synthetic
# T3 sequence (P13569 747-774 limits assumed, one chain of several): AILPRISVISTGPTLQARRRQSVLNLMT
Structure (SMILES),"short-circuit current after stimulation by forskolin and genistein ([1]; 20 μM CY07424, 1 μM VX-809, biological replicates)","conductance (short-circuit current) in words ([1]; 20 μM, forskolin and genistein stimulation)",stabilization of the 14-3-3/BAD peptide complex ([2]; 100 µM compound),FP signal ([2]; 14-3-3β 2.44141e-7 M),FP signal ([2]; 14-3-3β 4.88281e-7 M),FP signal ([2]; 14-3-3β 9.76563e-7 M),FP signal ([2]; 14-3-3β 1.95313e-6 M),FP signal ([2]; 14-3-3β 3.90625e-6 M),"Polarization, Everage no 14-3-3 ([3]; average of no 14-3-3 wells)","Polarization, no 14-3-3 ([3]; no 14-3-3, peptide 100 nM, replicates, listed as FC)"
N=C(N)NCCCC1NCc2ccccc2Sc2ccccc2CNC(=O)C(Cc2ccc(O)cc2)NC(=O)C(CCCN)NC1=O (stereo not shown) [CY007424],1.424 and 1.182 and 1.788 (2×) and 1.697 and 2.091,higher conductance than the DMSO control,some stabilization of the complex,59.3333,76.3333 and 74.3333 and 80.3333,77.3333 and 83.3333 and 79.3333,81.3333 and 79.3333 and 82.3333,74.3333 and 75.3333,,
"C=CC(C)(C)OC[C@H]1O[C@H](O[C@@H]2C3=C([C@H](C)COC(C)=O)C[C@H](O)[C@]3(C)/C=C3/[C@@H](COC)CC[C@H]3[C@@H](C)[C@H]2O)[C@H](O)[C@@H](OC(C)=O)[C@@H]1O [FC-A, fusicoccin A, reference compound]",,,,,,,,,22.00,23 and 21 and 22
